Legend:
[1] = tested on: HUVEC cells; test: Cell viability assay (MTS); assay type: cell-based, human; conditions: for reduction of cell viability at the higher dose tested: time at which it starts (in words): 50 µM peptide, 24 h and 48 h
Procedure: HUVECs were maintained in EGM®-2 BulletKit® medium. Cells were grown to 80% confluence at 37 °C in a humid atmosphere in the presence of 5% CO2. Passages 2–5 were used. Cells were starved for 12 h, using endothelial cell basal medium (EBM®-2 basal medium, 0,2% Fetal Bovine Serum) before all experiments.
The MTS assay (CellTiter 96® AQueous One Solution, Promega) was performed to compare the viability of cells treated with different concentrations of peptides (VEGF73-101, VEGF84-101 VEGFQ79G, and VEGFI83G) and CuSO4, and their complexes. We considered two different growth conditions for our treatments to be examined, to which we refer in this paper as proliferation conditions or survival conditions. Proliferation condition: Cells (3 replicates) were seeded in 96-well plates at a density of 1.5 × 10^3 cell/well, treated in EGM®-2 BulletKit®, 2% Fetal Bovine Serum (FBS) without VEGF supplementation. Survival condition: Cells (3 replicates) were seeded in 96-well plates at a density of 3 × 10^3 cell/well in an EBM®-2 basal medium of 0.2% FBS without supplements and VEGF. MTS assay was used following 24 h or 48 h of treatments according to the manufacturer’s instructions. The required copper and peptides were pre-mixed together in water in order to allow peptide/copper complexes formations before their addition to the cells. When the experiments were performed in the presence of bathocuproine disulfonic acid disodium salt (BCS), in proliferation condition, 50 µM of the copper chelator was added during the treatment for 24 h. The results were reported as the percentage of viable cells, with respect to the control set, to 100%.

[2] = RP-HPLC retention time on PepMap C18 column (UHPLC-ESI MS) as a measure of peptide hydrophobicity; assay type: physicochemical; conditions: used by the paper as measure of relative hydrophobicity, amidated-acetylated peptides, PepMap C18 column 300Å (75 μm × 150 mm), linear gradient 2% to 99% B (20% water–80% acetonitrile) with 0.1% FA over 40 min, 0.3 µL/min, 40 °C
Procedure: Here, we tested peptide lipophilic features by high-performance liquid chromatography using a reverse phase RP18 column.
To evaluate the relative hydrophobicity of the peptides, the retention times of amidated-acetylated peptides were recorded on a PepMap C18 column 300Å (75 μm × 150 mm) using a linear gradient from 2% to 99% of B (20% water–80% acetonitrile) containing 0.1% FA over 40 min, at a flow rate of 0.3 µL/min. The injection volume was 5 μL for analysis. The Q-exactive mass spectrometer was equipped with nano electrospray ion source (Nano EASY-Spray). The thermostatted column compartment was at 40 °C. The optimized parameters of mass spectrometry were illustrated as below: spray voltage, + 3.0 kV; capillary temperature, 250 °C; full MS; resolution, 70,000; automatic gain control (AGC) target, 3.0 × 10^6; maximum injection time (IT), 200 ms; scan range, 150–2000m/z. Nitrogen was used for spray stabilization. All data collected in profile mode were acquired and processed using Thermo Xcalibur 3.0 software.

[3] = tested on: HUVEC cells; test: Annexin V-FITC/PI staining, flow cytometry; assay type: cell-based, human; conditions: 72 h; for induction of apoptosis (in words): 5 µM peptide, EBM-2 0.2% FBS, PI/Annexin V, two experiments in triplicate
Procedure: Annexin V/ PI is a commonly used approach for studying apoptotic cells. Propidium iodide (PI) is widely used in conjunction with Annexin V to determine if cells are viable, apoptotic, or necrotic through differences in plasma membrane integrity and permeability. The fluorescence of AnnexinV-FITC/PI assay was read using flow cytometry. HUVEC cells were seeded on a 12-well plate at a density of 2.5 ×10^4 and grown for 48 h before treatments. During the last 24 h cells were starved in the same EBM-2 basal medium containing 0.2% fetal bovine serum without EC (endothelial cell) supplements. Cells were then exposed to 5 µM peptide for 72 h. When required, 10 µM CuSO4 was used in combination with peptides. Five hours of incubation in the presence of 1 µM STS (staurosporine) was used as a positive control for cell death. Cells were harvested and stained with Annexin V-FITC (Fluorescein isothiocyanate) and propidium iodide using an annexin V-FITC apoptosis detection kit (Life technologies, Monza (MB), Italy), following the manufacturer’s instructions. Briefly, cells were pelleted and resuspended in 800 µL PBS buffer containing 20 µL of annexin V, 20 µL of propidium iodide, and PI (Annexin V/Dead Cell Apoptosis Kit (Invitrogen), and kept for 10 min at 25 °C in the dark. Samples were analyzed within 1 h by flow cytometry using a CyFlow® ML (Sysmex Partec Milan-Italy). The fluorescent scatter plots indicated three types of cell populations: viable (Annexin V-FITC−/PI−), dead (Annexin V-FITC + /PI+), and apoptotic (Annexin V-FITC + /PI−). Quadrant analysis (FlowMax software -Partec) was performed on the gated fluorescent scatter plot to examine the percentage of live, dead, and apoptotic cell populations. Experiments were repeated twice in triplicate.
Sample were analyzed, 2 × 10^4 cells per sample, using a CyFlow® ML flow cytometer (Partec) system equipped with three laser sources and 10 optical parameters with dedicated filter setting and a high numerical aperture microscope objective (50× NA 0.82) for the detection of different scatter and fluorescence signals. […]

[4] = Model membrane permeabilization assay: release of 6-carboxyfluorescein from dye-filled LUVs; conditions: 10 µM peptide, 200 µM LUVs 5:3:2 POPC/POPE/POPS, 10 mM phosphate buffer, 100 mM NaCl, pH 7.4, 25 °C, after 800 min, fluorescence λex 494/λem 520 nm, average of three experiments
Procedure: Figure 2 Dye release (membrane leakage) from model membranes induced by VEGF73-101, VEGF84-101, VEGFQ79G, and VEGFI83G. Kinetics of dye release from 200 µM LUVs of 5:3:2 POPC/POPE/POPS in the presence of 10 µM of each peptide. All experiments were performed in 10 mM phosphate buffer, 100 mM NaCl, pH 7.4, at 25 °C. Results are the average of three experiments.
Figure 7 Peptide induced release of 6-carboxyfluorescein from 200 μM POPC:POPE:POPS LUVs measured in the presence of (a) 10 μM peptides/Cu and (b) 10 μM VEGF73-101 (magenta curve) and its 1:1 Cu(II) complex (black curve), 10 μM VEGFI83G (green curve) and its 1:1 Cu(II) complex (blue curve). Experiments were in triplicate at 25 °C in 10 mM phosphate buffer, 100 mM NaCl, pH 7.4.
Model membranes were prepared according to a procedure described elsewhere. To mimic the lipid composition of endothelial cell membranes, we used POPC:POPE:POPS (5:3:2 molar ratio) lipid mixture. Multilamellar vesicles (MLVs) were obtained by vortexing a chloroform lipid solution under a gentle nitrogen flow. Next, the lipid solution was dried overnight in a vacuum at room temperature in a round-bottomed flask to remove all the residual solvent. […] Pore formation in the lipid bilayer was monitored by measuring the increase in fluorescence emission intensity due to dye dilution (dequenching) in the buffer upon membrane leakage. […]

[5] = survival conditions (EBM2, 0.2% FBS without growth factors), MTS

Compound	cell viability of Cu(II) alone (in words) ([1]; 24 h, same concentrations as in the complexes, survival and proliferation conditions, MTS (Figure 9))	RP-HPLC retention time tR [2] [min]	reduction of cell viability at the higher dose tested: time at which it starts (in words) [1, 5]	induction of apoptosis (in words) [3]	dye release (membrane leakage) [4] [%]	cell viability (in words) ([1]; 5 µM peptide, 48 h, survival conditions (EBM2, 0.2% FBS without growth factors), MTS)	effect of the copper chelator BCS on the peptide's effect on cell viability (in words) ([1]; BCS 50 µM, 24 h, proliferation conditions, no added copper, MTS (Figure S10))	live cells in the presence of Cu(II) (in words) ([3]; peptide 5 µM with copper(II) 10 µM, PI/Annexin V (Figure 10))
O=S(=O)([O-])[O-].[Cu+2] [Cu(II), copper sulfate, reference compound]	had no effects	–	–	–	–	–	–	–
Ac-ESTNIMGIMRIKPHQGQHIGEMSFLQHNK-NH2 [VEGFQ79G, VEGF73-101 with point mutation in position 79 (Gln-Gly)]	–	21.4	starting at 48 h	–	–	–	–	–
Ac-ESTNIMQIMRGKPHQGQHIGEMSFLQHNK-NH2 [VEGFI83G, VEGF73-101 with point mutation in position 83 (Ile-Gly)]	–	20.4	starting at 24 h	–	–	–	–	–
Ac-KPHQGQHIGEMSFLQHNK-NH2 [VEGF84-101]	–	18.2	all peptides (except VEGF84-101) were able to reduce cell viability	Neither the shorter sequence (VEGF84-101), nor the single mutated peptides induced apoptosis	–	–	–	–
Ac-ESNITMQIMRIKPHQGQHIGEMSFLQHNK-NH2 [VEGF73-101]	–	21.7	starting at 24 h	able to induce apoptosis	~5	significantly decrease cell viability	not significantly altered by BCS	caused a decrease in live cells

— PMC7216235, “The Ionophoric Activity of a Pro-Apoptotic VEGF165 Fragment on HUVEC Cells” (International Journal of Molecular Sciences, 2020)
